Experimental data reported in US20120172503A1, “AMORPHOUS SOLID MODIFICATION OF BIS(2,4-DICUMYLPHENYL) PENTAERYTHRITOL DIPHOSPHITE” (priority 2002, published 2012).

Assay: Dissolving rate and solubility in organic materials versus crystalline form
Conditions: in polymers and lubricants; compared to the prior art crystalline form

bis(2,4-dicumylphenyl)pentaerythritol diphosphite [Example 1]
rate of dissolving in organic materials: faster rate of dissolving
solubility in organic materials: better solubility
